One test has as its target T1, human orexin-1 receptor (Homo sapiens, UniProt O43613).
T1 construct: expressed in transfected cells; host or cells: CHO (Chinese hamster ovary) cells, G418 selection
T1 sequence (O43613 1-425): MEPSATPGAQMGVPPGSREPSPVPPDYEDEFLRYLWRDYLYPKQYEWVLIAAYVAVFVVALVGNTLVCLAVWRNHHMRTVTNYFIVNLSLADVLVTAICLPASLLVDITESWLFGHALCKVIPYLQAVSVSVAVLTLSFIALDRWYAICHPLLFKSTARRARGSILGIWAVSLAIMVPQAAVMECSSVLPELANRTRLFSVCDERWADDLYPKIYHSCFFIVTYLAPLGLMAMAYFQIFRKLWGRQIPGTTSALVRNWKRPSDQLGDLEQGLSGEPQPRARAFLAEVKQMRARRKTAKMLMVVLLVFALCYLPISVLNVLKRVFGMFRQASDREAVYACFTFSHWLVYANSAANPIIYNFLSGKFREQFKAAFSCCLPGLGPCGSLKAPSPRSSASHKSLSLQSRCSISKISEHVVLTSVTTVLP
Put plainly: Intracellular calcium measurements (FLIPR), orexin receptor antagonistic activity, OX1. It counts as cell-based. The note with it: CHO cells expressing the human orexin-1 receptor, 10 nM orexin-A as agonist. On the procedure: (§1) The orexin receptor antagonistic activity of the compounds of formula (I) is determined in accordance with the following experimental method.
(§2) Intracellular Calcium Measurements:
(§3) Chinese hamster ovary (CHO) cells expressing the human orexin-1 receptor and the human orexin-2 receptor, respectively, are grown in culture medium (Ham F-12 with L-Glutamine) containing 300 μg/ml G418, 100 U/ml penicillin, 100 μg/ml streptomycin and 10% inactivated fetal calf serum (FCS). The cells are seeded at 80′000 cells/well into 96-well black clear bottom sterile plates (Costar) which have been precoated with 1% gelatine in Hanks' Balanced Salt Solution (HBSS). All reagents are from Gibco BRL. The seeded plates are incubated overnight at 37° C. in 5% CO2.
(§4) Human orexin-A as an agonist is prepared as 1 mM stock solution in MeOH:water (1:1), diluted in HBSS containing 0.1% bovine serum albumin (BSA) and 2 mM HEPES for use in the assay at a final concentration of 10 nM.
(§5) Antagonists are prepared as 10 mM stock solution in DMSO, then diluted in 96-well plates, first in DMSO, then in HBSS containing 0.1% bovine serum albumin (BSA) and 2 mM HEPES.
(§6) On the day of the assay, 100 μl of loading medium (HBSS containing 1% FCS, 2 mM HEPES, 5 mM probenecid (Sigma) and 3 μM of the fluorescent calcium indicator fluo-3 AM (1 mM stock solution in DMSO with 10% pluronic acid) (Molecular Probes) is added to each well.
(§7) The 96-well plates are incubated for 60 min at 37° C. in 5% CO2. The loading solution is then aspirated and cells are washed 3 times with 200 μl HBSS containing 2.5 mM probenecid, 0.1% BSA, 2 mM HEPES. 100 μl of that same buffer is left in each well.
(§8) Within the Fluorescent Imaging Plate Reader (FLIPR, Molecular Devices), antagonists are added to the plate in a volume of 50 μl, incubated for 20 min and finally 100 μl of agonist is added. Fluorescence is measured for each well at 1 second intervals, and the height of each fluorescence peak is compared to the height of the fluorescence peak induced by 10 nM orexin-A with buffer in place of antagonist. For each antagonist, IC50 value (the concentration of compound needed to inhibit 50% of the agonistic response) is determined.
On the technique in general: Calcium flux is commonly read through the fluorescence of an indicator in the cells.

The target in a further test is T2, human orexin-2 receptor (Homo sapiens, UniProt O43614).
T2 construct: expressed in transfected cells; host or cells: CHO (Chinese hamster ovary) cells, G418 selection
T2 sequence (O43614 1-444): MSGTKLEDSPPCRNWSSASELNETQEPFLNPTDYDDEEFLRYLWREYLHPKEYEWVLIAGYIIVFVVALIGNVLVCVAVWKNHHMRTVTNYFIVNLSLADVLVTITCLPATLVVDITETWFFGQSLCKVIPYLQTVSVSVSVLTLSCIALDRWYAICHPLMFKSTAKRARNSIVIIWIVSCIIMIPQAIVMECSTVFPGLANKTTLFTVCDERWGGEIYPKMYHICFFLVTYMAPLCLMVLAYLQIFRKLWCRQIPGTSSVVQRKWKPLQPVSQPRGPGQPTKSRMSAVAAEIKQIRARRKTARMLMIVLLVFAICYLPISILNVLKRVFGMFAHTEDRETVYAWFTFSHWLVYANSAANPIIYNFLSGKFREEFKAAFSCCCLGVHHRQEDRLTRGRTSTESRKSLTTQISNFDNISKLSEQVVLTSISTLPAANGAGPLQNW
As to the kind of experiment: Intracellular calcium measurements (FLIPR), orexin receptor antagonistic activity, OX2. It counts as cell-based. The settings on record: CHO cells expressing the human orexin-2 receptor, 10 nM orexin-A as agonist. On the procedure: as §1, §2, §3, §4, §5, §6, §7, §8

What is called IC50 is the concentration needed to halve the response being measured.

Structures are written as SMILES.

Take `Cc1cccc(-c2sc(C)nc2C(=O)N2[C@H](CNC(=O)c3c(C)nc4sccn34)C[C@@H]3C[C@@H]32)c1` [Example 11, 6-methyl-imidazo[2,1-b]thiazole-5-carboxylic acid [(1S,3S,5S)-2-(2-methyl-5-m-tolyl-thiazole-4-carbonyl)-2-aza-bicyclo[3.1.0]hex-3-ylmethyl]-amide]: the IC50 at human orexin-1 receptor was 7 nM; at human orexin-2 receptor, 24 nM.

For the molecule `Cc1nc(C(=O)N2[C@H](CNC(=O)c3cccc4c3CCO4)C[C@@H]3C[C@@H]32)c(-c2cccc(F)c2C)s1` [Example 199, 2,3-Dihydro-benzofuran-4-carboxylic acid {(1S,3S,5S)-2-[5-(3-fluoro-2-methyl-phenyl)-2-methyl-thiazole-4-carbonyl]-2-aza-bicyclo[3.1.0]hex-3-ylmethyl}-amide], the 50% inhibitory concentration (IC50) at human orexin-1 receptor was found to be 139 nM; on human orexin-2 receptor it was 41 nM.

On to `Cc1nc(C(=O)N2[C@H](CNC(=O)c3nccc4ccccc34)C[C@@H]3C[C@@H]32)c(-c2cccc(F)c2)s1` [Example 38, isoquinoline-1-carboxylic acid {(1S,3S,5S)-2-[5-(3-fluoro-phenyl)-2-methyl-thiazole-4-carbonyl]-2-aza-bicyclo[3.1.0]hex-3-ylmethyl}-amide], for which the half-maximal inhibitory concentration (IC50) amounted to 104 nM on human orexin-1 receptor and 358 nM on human orexin-2 receptor.

As to `Cc1cccc(-c2sc(C)nc2C(=O)N2[C@H](CNC(=O)c3ccc4ccccc4n3)C[C@@H]3C[C@@H]32)c1` [Example 93, Quinoline-2-carboxylic acid [(1S,3S,5S)-2-(2-methyl-5-m-tolyl-thiazole-4-carbonyl)-2-aza-bicyclo[3.1.0]hex-3-ylmethyl]-amide], the IC50 on human orexin-1 receptor amounted to 14 nM; on human orexin-2 receptor, 40 nM.

Consider `O=C(NC[C@@H]1C[C@@H]2C[C@@H]2N1C(=O)c1ncsc1-c1cccc(Cl)c1)c1cccc2c1CCO2` [Example 212, 2,3-Dihydro-benzofuran-4-carboxylic acid {(1S,3S,5S)-2-[5-(3-chloro-phenyl)-thiazole-4-carbonyl]-2-aza-bicyclo[3.1.0]hex-3-ylmethyl}-amide], for which the IC50 on human orexin-1 receptor stood at 109 nM; on human orexin-2 receptor, 102 nM.

Take `O=C(c1nc(C2CC2)sc1-c1ccccc1)N1[C@H](CNc2ncc(Br)cn2)C[C@@H]2C[C@@H]21` [Example 265, {(1S,3S,5S)-3-[(5-Bromo-pyrimidin-2-ylamino)-methyl]-2-aza-bicyclo[3.1.0]hex-2-yl}-(2-cyclopropyl-5-phenyl-thiazol-4-yl)-methanone]: the IC50 at human orexin-1 receptor amounted to 131 nM; at human orexin-2 receptor it was 68 nM.

For the molecule `Cc1nc(C(=O)N2[C@H](CNc3ncc(Br)cn3)C[C@@H]3C[C@@H]32)c(-c2ccc(F)c(F)c2)s1` [Example 259, {(1S,3S,5S)-3-[(5-Bromo-pyrimidin-2-ylamino)-methyl]-2-aza-bicyclo[3.1.0]hex-2-yl}-[5-(3,4-difluoro-phenyl)-2-methyl-thiazol-4-yl]-methanone], the IC50 on human orexin-1 receptor stood at 62 nM; on human orexin-2 receptor, 145 nM.

In the case of `COc1ccc(C(=O)NC[C@@H]2C[C@@H]3C[C@@H]3N2C(=O)c2nc(C)sc2-c2cccc(C)c2)cc1OC` [Example 123, 3,4-Dimethoxy-N-[(1S,3S,5S)-2-(2-methyl-5-m-tolyl-thiazole-4-carbonyl)-2-aza-bicyclo[3.1.0]hex-3-ylmethyl]-benzamide], the half-inhibitory concentration (IC50) is 1980 nM at human orexin-1 receptor and 74 nM on human orexin-2 receptor.

As to `CCn1cc(C(=O)NC[C@@H]2C[C@@H]3C[C@@H]3N2C(=O)c2nc(C)sc2-c2cccc(C)c2)c(C)n1` [Example 99, 1-Ethyl-3-methyl-1H-pyrazole-4-carboxylic acid [(1S,3S,5S)-2-(2-methyl-5-m-tolyl-thiazole-4-carbonyl)-2-aza-bicyclo[3.1.0]hex-3-ylmethyl]-amide], the half-maximal inhibitory concentration (IC50) at human orexin-1 receptor was 42 nM; at human orexin-2 receptor it was 15 nM.

Take `Cc1nc(C(=O)N2[C@H](CNC(=O)c3cccc4c3CCO4)C[C@@H]3C[C@@H]32)c(-c2ccc(Br)cc2)s1` [Example 192, 2,3-Dihydro-benzofuran-4-carboxylic acid {(1S,3S,5S)-2-[5-(4-bromo-phenyl)-2-methyl-thiazole-4-carbonyl]-2-aza-bicyclo[3.1.0]hex-3-ylmethyl}-amide]: the IC50 at human orexin-1 receptor was 110 nM; at human orexin-2 receptor it was 35 nM.

For the origin of these results see patent US8288435B2, “2-aza-bicyclo[3.1.0]hexane derivatives as orexin receptor antagonists” (Actelion Pharmaceuticals Ltd., priority 2006, dated 2012).
